Source: ChEMBL document CHEMBL3886324, “Pyrimidinylpiperidinyloxypyridone analogues as GPR119 modulators” (2015)
pEC50: −log10 of the molar value.

Assay: Tet-Inducible cAMP Assay: A human-mouse chimeric GPR119 expression construct encoding 3 copies of the FLAG epitope tag, the first 198 amino acids of human GPR119 and the C-terminal 137 amino acids of the mouse receptor was cloned into a tetracycline inducible vector pcDNA5/FRT/TO (Invitrogen #V6520-20), which includes a hygromycin-resistance marker. Tightly controlled receptor expression was achieved by stable integration of this construct into the genome of a specific host cell line, Flp-In-T-Rex-HEK293, expressing the tetracycline repressor (Invitrogen). Once a stable hygromycin-resistant cell line was generated, the cells were maintained at 37° C. in a humidified 5% CO2 atmosphere in culture medium consisting of Dulbecco's modified Eagle's medium (DMEM; Invitrogen #11960) supplemented with 2 mM L-glutamine, 10% fetal bovine serum, 200 μg/ml hygromycin B, and 15 μg/ml blasticidin.

| SMILES | pEC50 |
| --- | --- |
| Cc1nc(-n2cc(Cl)c(OC3CCN(c4ncc(Cl)cn4)CC3)cc2=O)ccc1N1CCC(O)C1=O (stereo not drawn) | 8.70 |
| Cc1nc(-n2ccc(OC3CCN(c4ncc(Cl)cn4)CC3)cc2=O)ccc1N1CCC(O)C1=O (stereo not drawn) | 8.00 |
| Cc1nc(-n2cc(Cl)c(OC3CCN(c4ncc(Cl)cn4)CC3)cc2=O)ccc1N1CC[C@@H](O)C1=O | 8.52 |
